Data reported in PMC12488499, “Molecular mechanism of ultrafast transport by plasma membrane Ca^2+-ATPases” (Nature, 2025).

Key:
PMCA2 [1] = molecular target: T1, PMCA2 (Mus musculus, UniProt Q9R0K7); assay: whole-cell patch clamp, BKCa-based Ca2+ transport assay in CHO cells; set-up: gene Atp2b2; PMCA2 C-terminally fused with GFP, co-expressed with NPTN-RFP in CHO cells; with NPTN
PMCA2 [2] = molecular target: T1, PMCA2; assay: cryo-EM structure, E1-ATP state; type: binding; set-up: gene Atp2b2; mouse PMCA2 (NM_001036684.3) with C-terminal FLAG or His-FLAG tag, expressed in tsA201 NPTN/BSG double knockout cells; with NPTN

T1 sequence (Q9R0K7 whole entry, the tested form may be a part): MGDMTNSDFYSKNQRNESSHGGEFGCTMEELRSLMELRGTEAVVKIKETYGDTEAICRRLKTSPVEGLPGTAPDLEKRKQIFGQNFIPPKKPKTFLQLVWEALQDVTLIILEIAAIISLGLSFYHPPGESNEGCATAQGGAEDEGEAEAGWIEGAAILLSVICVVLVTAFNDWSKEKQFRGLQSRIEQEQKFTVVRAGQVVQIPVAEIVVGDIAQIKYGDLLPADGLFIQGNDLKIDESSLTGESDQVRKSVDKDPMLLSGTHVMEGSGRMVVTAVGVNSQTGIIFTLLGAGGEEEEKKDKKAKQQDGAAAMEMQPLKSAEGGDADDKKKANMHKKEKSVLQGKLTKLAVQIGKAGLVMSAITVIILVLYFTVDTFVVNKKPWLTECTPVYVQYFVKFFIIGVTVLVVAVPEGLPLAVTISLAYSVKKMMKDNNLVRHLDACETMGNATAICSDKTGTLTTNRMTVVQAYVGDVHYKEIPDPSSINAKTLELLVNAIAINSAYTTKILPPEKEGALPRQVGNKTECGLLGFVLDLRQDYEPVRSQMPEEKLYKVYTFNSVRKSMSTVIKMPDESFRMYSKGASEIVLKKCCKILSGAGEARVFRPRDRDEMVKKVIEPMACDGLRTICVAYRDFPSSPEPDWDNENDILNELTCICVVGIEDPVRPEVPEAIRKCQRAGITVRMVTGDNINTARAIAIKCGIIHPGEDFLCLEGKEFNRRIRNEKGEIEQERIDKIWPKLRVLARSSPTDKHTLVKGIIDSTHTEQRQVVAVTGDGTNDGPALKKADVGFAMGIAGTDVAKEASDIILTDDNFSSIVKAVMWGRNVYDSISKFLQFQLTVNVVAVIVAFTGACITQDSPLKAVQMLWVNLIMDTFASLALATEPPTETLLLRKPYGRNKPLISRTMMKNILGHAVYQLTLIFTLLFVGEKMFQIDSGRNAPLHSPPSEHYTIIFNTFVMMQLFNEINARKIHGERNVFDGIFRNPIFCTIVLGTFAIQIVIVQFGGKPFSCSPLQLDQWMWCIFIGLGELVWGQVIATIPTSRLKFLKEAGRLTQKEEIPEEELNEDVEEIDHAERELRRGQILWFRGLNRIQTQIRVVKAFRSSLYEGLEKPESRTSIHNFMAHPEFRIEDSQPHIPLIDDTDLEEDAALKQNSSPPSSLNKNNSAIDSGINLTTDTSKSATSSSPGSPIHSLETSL
T1 sequence (P97300 29-397 partner): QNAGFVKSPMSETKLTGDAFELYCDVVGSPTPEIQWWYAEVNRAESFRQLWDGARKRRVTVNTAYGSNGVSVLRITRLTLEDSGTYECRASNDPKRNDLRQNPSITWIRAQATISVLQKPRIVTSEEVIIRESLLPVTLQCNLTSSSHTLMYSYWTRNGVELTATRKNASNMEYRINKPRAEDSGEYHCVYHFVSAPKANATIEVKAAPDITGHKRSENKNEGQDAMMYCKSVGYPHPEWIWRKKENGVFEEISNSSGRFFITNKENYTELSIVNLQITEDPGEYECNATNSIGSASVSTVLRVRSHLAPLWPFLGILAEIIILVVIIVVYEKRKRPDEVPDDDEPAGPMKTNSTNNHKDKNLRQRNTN

Row | Structure (SMILES) | IC50 (PMCA2 [1]) [µM] | cryo-EM structure, E1-ATP state (PMCA2 [2])
1 | C/C=C(/C)C(=O)O[C@H]1C(C)=C2[C@H]([C@@H]1OC(=O)CCCCCCC)[C@@](C)(OC(C)=O)C[C@H](OC(=O)CCC)[C@@]1(O)[C@H]2OC(=O)[C@@]1(C)O [thapsigargin] | 2.6 | 
2 | Nc1ncnc2c1ncn2[C@@H]1O[C@H](CO[P@](=O)(O)O[P@](=O)(O)NP(=O)(O)O)[C@@H](O)[C@H]1O [AMPPNP] |  | The bound AMPPNP molecule is shown, with the corresponding cryo-EM density in grey.
